Laboratory results reported in patent US9708370B2, “Azapeptides as CD36 binding compounds” (VALORISATION-RECHERCHE, LIMITED PARTNERSHIP, priority 2007, dated 2017).
Entries after “also recorded” stand apart in the source; their conditions may differ. Starred links: 1 amine or outer side, 2 acyl side, 3 side chain; linkers in the order of their positions; H or OH if unused. Non-standard residues stand in square brackets, D forms with d. Residues, ends and D or L forms follow the SMILES beside them. azaTyr = O=C(N(Cc1ccc(O)cc1)N[*:1])[*:2]

What was measured:
[1] = system: laser injury induced choroidal neovascularisation; assay: Inhibition of choroidal neovascularisation in vivo, laser injury model; parameters: species or system mice
Description: The standard model of choroidal neovascularisation is the laser injury induced neovascularisation (47). In this model, which is applicable to rodents and primates, a laser beam is used to disrupt the RPE and the Bruchs membrane that separates the choroidal vasculature from the subretinal space. The following local inflammatory reaction in deep retina and choroid leads to a localized subretinal neovascularisation in a similar manner as that observed in AMD. This local neovascularisation can be quantified on flatmounts of RPE/choroid/sclera. The antiangiogenic effect of DBG178 on subretinal neovascularisation was tested by injecting intravitreally at effective concentration of 10^−7 to 10^−6 M within the eye and compared to that of intravitreal injection of saline used as a control.
Ten-week old C56/Bl6+/+ and CD36 null mice of C57Bl/6 background were anesthetized by intramuscular injection of ketamine (50 mg/kg) and xylazine (10 mg/kg). Pupils were fully dilated with 1% tropicamide. Coverslips positioned on the mouse cornea were used as a contact glass. Laser-coagulations were performed 1 to 2 disc diameters away from the papillae using an Argon laser (532 nm) mounted on a slit lamp (400 mW, 50 ms and 50 μm). […] The RPE/choroids were radially incised, flatmounted and viewed using a fluorescence microscope (BX51; Olympus). CNV were measured on photographs using Scion image analysis software.

[2] = system: vascular sprouting of aortic endothelium (aortic rings); assay: Inhibition of microvascular sprouting from Matrigel-embedded aortic explants; format: cell-based, mice
Description: FIG. 1 illustrates disruption of vascular sprouting of aortic endothelium by azapeptide compound DBG178. Sprouting aortic endothelium (Von Willebrand factor positive) expressing CD36 is shown in the upper row of FIG. 1a. Vascular sprouting of aortic rings from C57BL/6 and CD36 null mice in the presence of DBG 178 at 10^−7M is shown in the lower row of FIG. 1a. Histograms of microvascular sprouts areas (mean±s.e.m) from aortic explants of C57BL/6 and CD36 null mice exposed to DBG concentrations from 10^−8 to 10^−6 M p<0.01 compared with control (Ctl) is shown in FIG. 1b.
Aortas were excised from 10-week-old male C57/Bl6+/+ and CD36−/− mice of C57/Bl6 background. The fibroadipose tissue was removed and aortas were sectioned into 2-mm-long cross-sections. The +/+ and −/− rings were covered by 50 μl of Matrigel and cultured for 4 days in EGM-2 medium (Clonetics Corp.). Explants were then exposed to vehicle alone or in presence of an azapeptide prototype DBG178 at the indicated concentrations (10^−8 to 10^−6 M) from day 4 to day 6 of culture in EGM-2 medium. Pictures of each individual explant were taken at day 4 and day 6 and EC growth was measured as the surface covered at day 6 minus the surface covered at day 4 Data were subject to analysis of variance (ANOVA) followed by Dunnet's post test to test for differences among groups. Outgrowing cells were characterized by double-labelling with monoclonal vWF antibody (1:100, Dako) and polyclonal CD36 (1:100, Santa Cruz) after acetone fixation using their respective alexa coupled secondary antibodies.

C[C@H](NC(=O)[C@@H](Cc1c[nH]c2ccccc12)NC(=O)[C@@H](N)Cc1cnc[nH]1)C(=O)NN(Cc1ccc(O)cc1)C(=O)N[C@H](Cc1ccccc1)C(=O)N[C@@H](CCCCN)C(N)=O [DBG178p, His-D-Trp-Ala-azaTyr-D-Phe-Lys-NH2] (H-H[dW]A[azaTyr][dF]K-NH2)
inhibition of the neovascular response ([1]; C57BL/6 mice, intravitreal injection 3 and 7 days after laser injury, 10^−7 and 10^−6 M within the eye): more than 50% | effect on the neovascular response ([1]; eye of CD36 null mice, intravitreal injection): no effect | inhibition of vascular sprouting of aortic rings ([2]; aortic rings from C57BL/6 mice, 10^−7 to 10^−6 M): disrupt significantly; also recorded: significantly inhibited | inhibitory effect on vascular sprouting of aortic rings ([2]; aortic rings from CD36 null mice): not detected
